In test [1] the test system is parenchymal arterioles (PA). The test is described as follows: Pressurized arteriograph: vascular reactivity and structure of PA from female SHR. It is filed as in vivo, rat. Conditions: SHR-F-Rln-Axi vs SHR-F-Rln. The protocol: A separate group of SHR-F was used to determine if relaxin crosses the BBB by treating with relaxin (4 μg/hr) for 14 days and measuring relaxin concentration in cerebrospinal fluid (CSF) and serum (SHR-F-Rln-CSF, n=4). For the osmotic pump implant, animals were anesthetized with 3% isoflurane and minipumps implanted subcutaneously in the back of the neck. All animals received post-surgical analgesia (buprenorphine, 50 μg/kg, s.c.). Relaxin infusion was continuous for 14 days until animals were euthanized for isolated vessel experiments and tissue collection.
After collecting trunk blood, the brain was quickly removed and placed in cold physiological salt solution (PSS). PA between the M1 and M2 region of the MCA territory and the MCA from the same animals were carefully isolated from WKY-F, SHR-F, and SHR-F-Rln groups and mounted on glass cannulas. PA were identified as branches off the MCA that penetrated into the brain tissue, as previously described (han, S. L., and Cipolla, M. J. (2011) Relaxin causes selective outward remodeling of brain parenchymal arterioles via activation of peroxisome proliferator-activated receptor-gamma. FASEB J 25, 3229-3239). […] The proximal cannula was connected to an in-line pressure transducer and a servo-null pressure control system (Living Systems Instrumentation, Burlington, Vt., USA) that allowed intravascular pressure to be maintained at a set pressure or changed at a variable rate. The distal cannula was closed during the experiment to avoid flow-mediated responses. Temperature and pH were continuously measured and maintained at 37.0±0.5° C. and 7.40±0.05, respectively. Measurements of inner diameter (ID) and wall thickness (WT) were made via video microscopy (Living Systems Instrumentation, Burlington, Vt.).
PA and MCA were equilibrated for 1 hour, after which myogenic activity was determined by stepwise increases in pressure from 40 to 100 mmHg for PA or 50 to 175 mmHg for MCA. ID and WT were measured at each pressure once stable. Endothelium-dependent dilation was studied by adding NS309 (10^−8-10^−5 M), an activator of small- and intermediate-conductance calcium-activated potassium channels (SKCa, IKCa). NS309 was washed out of the bath and a single concentration of the nitric oxide synthase (NOS) inhibitor L-nitro-n-arginine (L-NNA, 10^−4 M) added to the bath. Constriction to NOS inhibition was used as an additional indicator of endothelial function. In the presence of L-NNA, sodium nitroprusside (SNP, 10^−8-10^−5 M) was added to the bath to assess endothelium-independent vasodilation. To obtain structural measurements, ID and WT were recorded at pressures between 5 to 200 mmHg for PA or 5 to 175 mmHg for MCA in zero-calcium PSS containing ethylene glycol tetra-acetic acid (EGTA) and outer diameter (OD) and distensibility calculated.
Percent tone was calculated as percent decrease in ID from the passive diameter at each intravascular pressure: [1−(IDactive/IDpassive)]×100. Percent reactivity for vasodilators was calculated as ((IDdose−IDstart)/(IDpassive−IDstart))×100. Percent constriction for vasoconstrictor was calculated as (1−(IDdose/IDstart))×100. OD was calculated from measured ID and WT: ID+2WT. Distensibility at a given pressure was calculated as (IDpassive−IDoriginal)/(IDoriginal)×100, where IDoriginal is defined as passive inner diameter determined at lowest pressure (5 mmHg). Data from qPCR study were analyzed using the −2^ΔΔCT method, as described previously (Livak, K. J., and Schmittgen, T. D. (2001) Analysis of relative gene expression data using real-time quantitative PCR and the 2(−Delta Delta C(T)) Method. Methods 25, 402-408). Data were removed when the Ct values of technical replicates differed by more than 0.5.

Test [2] has as its system parenchymal arterioles (PA). Put plainly: Pressurized arteriograph: vascular reactivity and structure of PA from relaxin-treated NP Sprague Dawley rats. It is filed as in vivo, rat. Particulars: GW9662 10 mg/kg daily in food during relaxin infusion, 5 mmHg. An excerpt:
(§1) Animals and Treatment Groups: All procedures were approved by the Institutional Animal Care and Use Committee and conducted in accordance with the National Institutes of Health Guide for the Care and Use of Laboratory Animals. Female virgin NP Sprague Dawley rats (250-300 g, 14-16 weeks, Charles River, Canada) were used for all experiments and housed in the University of Vermont Animal Care Facility. Animals were randomly selected and grouped as untreated (N=4), treated with recombinant human relaxin-2 (relaxin, 4 μg/hr; N=14), relaxin plus a specific PPARγ inhibitor GW9662 (10 mg/kg daily in food; N=8), or vehicle (20 mM sodium acetate; N=14) for 10 days through osmotic minipumps (Alzet 2ML2, Durect Corp., Cupertino, Calif., USA). GW9662 treatment was started 1 day before and for the duration of relaxin treatment to ensure PPARγ was inhibited. Animals were anesthetized with 3% isoflurane and minipumps implanted subcutaneously in the back of the neck. All animals received post-surgical analgesic (buprenorphine, 50 μg/kg, s.c.). Relaxin infusion was continuous for 10 days until animals were euthanized for vessel experiments and tissue collection. The minipumps used were capable of delivering relaxin for 14 days and thus tissue collection was within this duration.
Vessel Preparation and Pressurized Arteriograph System: After collecting trunk blood, the brain was quickly removed and placed in cold physiological salt solution (PSS). In the first set of experiments, PA between the M1 and M2 region of the MCA territory and the MCA from the same animals were carefully isolated from vehicle- or relaxin-treated animals and mounted on glass cannulas in a dual-chambered arteriograph such that one PA and one MCA from each animal were studied simultaneously. PA were identified as branches off the MCA that penetrated into the brain tissue, as previously described (25). In the second set of experiments, PA from the same brain region as above were dissected from relaxin+GW9662-treated animal and compared to PA from vehicle- and relaxin-treated animals. MCA were not studied in this second set of animals because there was no effect of relaxin on that segment of the vasculature. The proximal cannulas were connected to an in-line pressure transducer and a servo-null pressure control system (Living Systems Instrumentation, Burlington, Vt., USA) that allowed intravascular pressure to be maintained at a set pressure or changed at a variable rate. The distal cannulas were closed during the experiment to avoid flow-mediated responses. Temperature and pH were continuously measured and maintained at 37.0±0.5° C. and 7.40±0.05, respectively. Measurements of inner diameter (ID) and wall thickness (WT) were made via video microscopy (Living Systems Instrumentation).
Vascular Reactivity and Structural Characteristics in PA and MCA: For the first set of experiments, PA and MCA were equilibrated for 1 hour at 25 mmHg, after which myogenic activity was determined by stepwise increases in pressure from 40 to 100 mmHg for PA or 50 to 175 mmHg for MCA. ID and WT were measured at each pressure once stable. Changes in ID and WT were measured in PA only in response to small- (SKCa) and intermediate- (IKCa) conductance calcium-activated potassium channels blockers, apamin (3×10^−7 M) and TRAM-34 (10^−6 M), respectively. PA are unique in that the contribution of endothelium-derived hyperpolarizing factors (EDHF) to tone is greater than most vessels Cipolla et al. (2009) Stroke 40, 1451-1457. Thus, inhibition of SKCa/IKCa channels, a critical component in the EDHF pathway, causes constriction in PA Cipolla et al. (2009) Stroke 40, 1451-1457. We therefore assessed the effect of relaxin on constriction of PA in response to SKCa/IKCa channel inhibition in order to assess this unique pathway. […]

The subject of another test is PPARγ target genes. Put plainly: PPARγ target gene expression (real-time qPCR) in adipose tissue, pial arteries and PA, NP Sprague Dawley rats. It is filed as in vivo, rat. Conditions: GW9662 co-treatment.
Excerpt: as §1
Determination of RXFP1 and PPARγ Target Gene Expression: MCA and PA from 4 untreated rats were collected to determine expression level of RXFP1, the primary relaxin receptor, using real-time qPCR methods. We also collected adipose tissue, pial arteries, and PA from vehicle, relaxin and relaxin+GW9662 groups (n=6 for each group) for determination of PPARγ target gene expression. All collected samples were stored in RNase inhibitor (1 unit/μl, RiboLock, Fermentas, Glen Burnie, Md., USA) at −80° C. for comparing expression of fatty acid translocase (FAT)/CD36 and liver X receptors-α (LXRα) for adipose tissue, and plasminogen activator inhibitor-1 (PAI-1) for vasculature. Standard techniques for real-time qPCR were performed by the Vermont Cancer Center DNA analysis facility at the University of Vermont, as described previously Cipolla et al. (2009) Stroke 40, 1451-1457. Briefly, RNA was extracted from tissues and concentration and integrity was determined by a NanoDrop ND-1000 Spectrophotometer (Wilmington, Del.) and an Agilent 2100 Bioanalyzer (Santa Clara, Calif., USA), respectively. Samples with low RNA quality were excluded. cDNA was then made by a SuperScript III Kit (Invitrogen, Carlsbad, Calif., USA). Real-time qPCR was set up as follows: 10 μL Universal PCR Master Mix (Applied Biosystems, Foster City, Calif., USA), 1 μL Assay on Demand (Applied Biosystems), 8 μL water, and 1 μL cDNA. β2-microglobulin (B2M, housekeeping control) and target genes were assessed using Assays on Demand from Applied Biosystems. […] Primers were designed across an exon-exon junction to avoid detecting genomic DNA. Thus, no DNase treatment of samples was necessary. All samples were run in duplicates using a 7900HT Sequence Detection System (Applied Biosystems). […]
Data Calculations and Statistical Analysis: Percent tone was calculated as percent decrease in ID from the passive diameter at each intravascular pressure: [1−(IDactive/IDpassive)]×100%. Outer diameter (OD) was calculated from measured ID and WT: ID+2WT. Cross-sectional area (CSA) of the wall was calculated as: [(OD/2)2−(ID/2)2]×π. Data from qPCR study were analyzed using the −2^ΔΔCT method, as described previously Livak et al. (2001) Methods 25, 402-408. […]

Test [3] has as its system parenchymal arterioles (PA). The test is described as follows: SKCa/IKCa channel blockers added to isolated pressurized PA. The arrangement: species or system rat. Conditions: apamin 3×10^−7 M, TRAM-34 10^−6 M in the bath. The protocol: Vascular Reactivity and Structural Characteristics in PA and MCA: For the first set of experiments, PA and MCA were equilibrated for 1 hour at 25 mmHg, after which myogenic activity was determined by stepwise increases in pressure from 40 to 100 mmHg for PA or 50 to 175 mmHg for MCA. ID and WT were measured at each pressure once stable. Changes in ID and WT were measured in PA only in response to small- (SKCa) and intermediate- (IKCa) conductance calcium-activated potassium channels blockers, apamin (3×10^−7 M) and TRAM-34 (10^−6 M), respectively. PA are unique in that the contribution of endothelium-derived hyperpolarizing factors (EDHF) to tone is greater than most vessels Cipolla et al. (2009) Stroke 40, 1451-1457. Thus, inhibition of SKCa/IKCa channels, a critical component in the EDHF pathway, causes constriction in PA Cipolla et al. (2009) Stroke 40, 1451-1457. We therefore assessed the effect of relaxin on constriction of PA in response to SKCa/IKCa channel inhibition in order to assess this unique pathway. To obtain structural measurements, ID and WT were recorded at pressures between 5 to 200 mmHg for PA or 5 to 175 mmHg for MCA after papaverine (10^−4 M) and diltiazem (10^−5 M) were added to the bath. For the second set of experiments in which animals were treated with relaxin+GW9662, passive structural measurements were made as described above.

The text below walks through data of patent publication US9393288B2, “Methods of treating diseases associated with PPARγ” (The University of Vermont and State Agricultural College, priority 2012, dated 2016).

In the case of `CNC(=O)c1ccccc1Sc1ccc2c(/C=C/c3ccccn3)n[nH]c2c1` [axitinib, reference compound], in test [1], the “Relaxin-induced increased distensibility of PA” value is “no effect”. Regarding `O=C(Nc1ccccc1)c1cc([N+](=O)[O-])ccc1Cl` [GW9662, reference compound], the “Structural changes of PA induced by relaxin” value in test [2] is “prevented”. In addition, the “Relaxin-induced change of CD36 gene expression in adipose tissue” value in the test with PPARγ target genes is given as “normalized”. Take `Clc1ccccc1C(c1ccccc1)(c1ccccc1)n1cccn1` [TRAM-34]: in test [3], the “Vasoconstriction of PA” value was “greater vasoconstriction”.
